Experiment [1] deals with T1, cyclin E/CDK2 enzyme (Homo sapiens, UniProt P24941).
T1 construct: made in house; host or cells: Sf9 insect cells, recombinant baculovirus
Nature of the experiment: CDK2 ELISA kinase assay (phospho-Rb ser 795 detection). In kind it is biochemical. The procedure:
(§1) • 1. High-binding ELISA microtiter plates (Costar) were coated with 40 μl of the kinase substrate (GST fusion of C-terminal fragment of the retinoblastoma susceptibility gene product) diluted to 10 μg/ml in tris-buffered saline (TBS), overnight at 4° C. • 2. Non-specific binding sites were blocked for 1 hour at 4° C. with Superblock in TBS (Pierce), and the plates rinsed with water. • 3. For the screen, 1.5 μl of test compound (200 μg/ml stock in 20% DMSO/20 mM HEPES, pH 7.5) was added to each well. Final dose of the test compound in the assay was 10 ug/ml. […] The kinase reaction (30 μl) was dispensed into each well. Reactions contained 200 μM ATP, 0.5 mg/ml bovine serum albumin (BSA; Sigma), and 0.5 μl partially purified cyclin D1/cdk 4 enzyme*. The enzyme complex is expressed in insect cells (Sf9) infected with recombinant baculovirus and partially purified using ammonium sulfate fractionation. Reaction volumes were adjusted to 30 μl with kinase assay buffer (50 mM HEPES, pH 7.5, 10 mM MgCl2, 5% glycerol, 10 mM 2-mercaptoethanol). • *: For CDK2 assay, 1.0 μl cyclin E/CDK2 enzyme (diluted 1:1000 in kinase assay buffer) was used. The enzyme is isolated from insect cells (Sf9) infected with recombinant baculovirus and partially purified using ammonium sulfate fractionation. For CDK1 assay, 0.08 μl cyclin B/CDK1 enzyme [New England BioLabs; the enzyme is isolated from insect cells (Sf9) infected with recombinant baculovirus carrying human cdc 2 and human cyclin B] was used.
(§2) […] • 5. Plates were incubated at 30° C. for 1 hour. • 6. The reaction mixture was removed by aspiration and replaced with 250 μl TBS containing 0.1% Tween-20 and 5% nonfat dry milk (blocking buffer). The plates were incubated at 4° C. for 1 hour. • 7. The blocking buffer was removed and replaced with 50 μl of the primary antibody [anti-phospho-Rb ser 795 (New England BioLabs) diluted 1:1000 in blocking buffer]. Incubation was at 4° C. for 16-20 hours. • 8. The wells were rinsed 3 times with 250 μl of TBS containing 0.1% Tween-20 followed by the addition of 50 μl of secondary antibody [anti-rabbit IgG conjugated to horseradish peroxidase (Amersham Life Science) diluted 1:1000 in blocking buffer]. • 9. After a 1 hour incubation at room temperature, the wells were rinsed 3 times with 250 μl of TBS/0.1% Tween 20. • 10. TMB (3,3′,5,5′-tetramethylbenzidine dihydrochloride) substrate solution (100 μl; Pierce) was added to each well and the color development reaction allowed to proceed 5-10 minutes at room temperature with shaking. The reaction was stopped by the addition of 2N sulfuric acid (100 μl) and the absorbance values read at 450 nm in a microplate reader (Molecular Devices). Analysis of Results: • 1. The percentage of the absorbance value in wells containing the test compound relative to control wells (no test agent) was determined. • 2. IC50 values of selected compounds were determined from inhibition curves, after subtracting background values (no substrate).
(ELISA stands for enzyme-linked immunosorbent assay.)

Experiment [2] deals with LoVo. Nature of the experiment: Cytotoxicity assay (SRB), LoVo. In kind it is cell-based. The following applies: LoVo cells, SRB, read-out: In Vitro Cellular Activity IC50 LOVO. The essentials: (§3)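 Protein staining with sulforhodamine B after cold TCA fixation served as the survival endpoint (A540, relative to untreated cells). Before staining, cells were incubated with compound at 37 °C, 7% CO2 for 3 days, or 6 days for BT474.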

The subject of experiment [3] is MCF-7. Kind of experiment: Cytotoxicity assay (SRB), MCF-7. The following applies: MCF-7 cells, SRB, read-out: In Vitro Cellular Activity IC50 MCF-7. In kind it is cell-based. The essentials: as §3
In experiment [4] the target is T2, cyclin D1/cdk 4 enzyme (Homo sapiens, UniProt P11802).
T2 construct: made in house; host or cells: Sf9 insect cells, recombinant baculovirus
Nature of the experiment: CDK4 ELISA kinase assay (phospho-Rb ser 795 detection). The format is biochemical. In a few lines:
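GST-Rb C-terminal fragment coated on wells; kinase reaction: 200 μM ATP, 0.5 mg/ml BSA, HEPES pH 7.5, 10 mM MgCl2, baculovirus/Sf9 cyclin-CDK, 30° C, 1 h. Readout anti-phospho-Rb Ser795, HRP, TMB, A450. Test compound 10 ug/ml final.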

Experiment [5] concerns BT474. Kind of experiment: Cytotoxicity assay (SRB), BT474. The format is cell-based. In a few lines: as §3
The subject of experiment [6] is HCT-116. Nature of the experiment: Cytotoxicity assay (SRB), HCT-116. Particulars: HCT116 cells, SRB, read-out: In Vitro Cellular Activity IC50 HCT116. The format is cell-based. The essentials: as §3
The target of experiment [7] is T3, cyclin B/CDK1 enzyme (Homo sapiens, UniProt P06493).
T3 construct: purchased New England BioLabs; host or cells: Sf9 insect cells, recombinant baculovirus
Kind of experiment: CDK1 ELISA kinase assay (phospho-Rb ser 795 detection). The format is biochemical. The procedure:
as §1, §2

Where [8] appears, read: In Vitro Enzyme Assays, read-out: CDK2 IC50.
Setting [9] is: Homo sapiens, LoVo, 72 h, three days.
The mark [10] stands for this setting: Homo sapiens, MCF7, 72 h, three days.
Setting [11] is: In Vitro Enzyme Assays, 200 μM ATP, read-out: CDK4 IC50.
Where [12] appears, read: Homo sapiens, BT-474, 144 h, BT474 cells, SRB, 6 days; read-out: In Vitro Cellular Activity IC50 BT474.
The mark [13] stands for this setting: Homo sapiens, HCT-116, 72 h, three days.
The mark [14] stands for this setting: In Vitro Enzyme Assays, read-out: CDK1 IC50.
Where [15] appears, read: Homo sapiens, LoVo, 72 h, 3 days.
Setting [16] is: Homo sapiens, MCF7, 72 h, 3 days.
[17] abbreviates: Homo sapiens, BT-474, 144 h, BT474 cells, 6 days, SRB; read-out: In Vitro Cellular Activity IC50 BT474.
Where [18] appears, read: Homo sapiens, HCT-116, 72 h, 3 days.
Setting [19] is: In Vitro Enzyme Assay, cyclin E/CDK2, read-out: CDK2 IC50.
Setting [20] is: In Vitro Enzyme Assay, cyclin B/CDK1, read-out: CDK1 IC50.
The mark [21] stands for this setting: In Vitro Enzyme Assay, cyclin D1/cdk 4, read-out: CDK4 IC50.

IC50 data for eleven compounds are collected here from patent US7713994B2 (Wyeth LLC, priority 2005, dated 2010).

Read-outs that look alike come from different tables or passages of the source.

T3 sequence (P06493 whole entry): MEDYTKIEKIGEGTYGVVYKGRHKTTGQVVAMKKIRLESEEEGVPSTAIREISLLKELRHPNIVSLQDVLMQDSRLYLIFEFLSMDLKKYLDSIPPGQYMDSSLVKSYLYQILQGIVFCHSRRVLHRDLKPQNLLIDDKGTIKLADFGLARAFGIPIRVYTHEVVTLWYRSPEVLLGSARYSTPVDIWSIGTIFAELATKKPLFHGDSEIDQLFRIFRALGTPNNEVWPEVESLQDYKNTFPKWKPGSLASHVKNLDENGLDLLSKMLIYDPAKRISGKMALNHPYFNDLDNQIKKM
T3 sequence (P14635 whole entry partner): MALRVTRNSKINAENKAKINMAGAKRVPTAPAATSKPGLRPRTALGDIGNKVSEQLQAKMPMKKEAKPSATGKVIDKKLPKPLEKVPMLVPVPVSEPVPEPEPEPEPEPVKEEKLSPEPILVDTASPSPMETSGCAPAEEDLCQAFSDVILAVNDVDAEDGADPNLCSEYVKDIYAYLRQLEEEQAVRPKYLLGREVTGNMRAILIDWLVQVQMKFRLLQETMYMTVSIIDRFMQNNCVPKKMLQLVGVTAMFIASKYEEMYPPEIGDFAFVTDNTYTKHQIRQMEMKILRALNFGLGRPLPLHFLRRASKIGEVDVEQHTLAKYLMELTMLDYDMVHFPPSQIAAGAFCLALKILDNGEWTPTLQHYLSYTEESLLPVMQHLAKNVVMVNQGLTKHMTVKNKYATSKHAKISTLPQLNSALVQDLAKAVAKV
T2 sequence (P11802 whole entry, species assumed): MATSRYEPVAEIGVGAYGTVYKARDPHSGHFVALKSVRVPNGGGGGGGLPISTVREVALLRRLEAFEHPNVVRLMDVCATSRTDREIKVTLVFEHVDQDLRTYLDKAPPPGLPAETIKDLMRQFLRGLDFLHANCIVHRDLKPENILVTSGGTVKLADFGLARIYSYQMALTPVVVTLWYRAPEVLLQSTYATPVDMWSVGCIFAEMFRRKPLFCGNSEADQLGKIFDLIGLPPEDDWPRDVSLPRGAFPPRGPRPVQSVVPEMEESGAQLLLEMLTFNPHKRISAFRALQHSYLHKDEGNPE
T2 sequence (P24385 whole entry partner, species assumed): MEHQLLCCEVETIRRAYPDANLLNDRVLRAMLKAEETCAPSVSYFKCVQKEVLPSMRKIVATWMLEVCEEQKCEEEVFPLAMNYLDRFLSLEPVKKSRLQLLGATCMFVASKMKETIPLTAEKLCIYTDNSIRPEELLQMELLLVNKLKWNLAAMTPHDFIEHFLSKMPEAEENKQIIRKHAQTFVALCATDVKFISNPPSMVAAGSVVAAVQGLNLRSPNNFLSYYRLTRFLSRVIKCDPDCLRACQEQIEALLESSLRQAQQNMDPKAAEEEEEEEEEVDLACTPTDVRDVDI

`CN1CCN(c2ccc(N/C=C3\C(=O)NC(=O)c4ccc(-c5ccc(C=O)o5)cc43)cc2)CC1` [Example 124, 5-[(4Z)-4-({[4-(4-Methylpiperazin-1-yl)phenyl]amino}methylene)-1,3-dioxo-1,2,3,4-tetrahydroisoquinolin-6-yl]-2-furaldehyde]: the IC50 (as a rule, the concentration that gives 50% inhibition) in experiment [1] (setting [8]) is more than 50000 nM; in experiment [2] (setting [9]), 5000 nM; in experiment [3] (setting [10]), 7900 nM; in experiment [4] (setting [11]), 360 nM; in experiment [5] (setting [12]), 9100 nM; in experiment [6] (setting [13]), 2600 nM.

Turning to `O=C1NC(=O)c2ccc(-c3ccoc3)cc2/C1=C/NCc1ccc(OC(F)F)c(O)c1` [Example 199, (4Z)-4-({[4-(Difluoromethoxy)-3-hydroxybenzyl]amino}methylene)-6-(3-furyl)isoquinoline-1,3(2H,4H)-dione], the IC50 in experiment [7] (setting [14]) was more than 50000 nM; in experiment [2] (setting [9]), 4100 nM; in experiment [3] (setting [10]), 1900 nM; in experiment [4] (setting [11]), less than 5 nM; in experiment [5] (setting [12]) it was 1300 nM; in experiment [6] (setting [13]), 6400 nM.

Consider `CN1CC2CC1CN2c1ccc(NC=C2C(=O)NC(=O)c3ccc(I)cc32)cc1` (stereo not shown) [Example 221, 6-Iodo-4-{[4-(5-methyl-2,5-diaza-bicyclo[2.2.1]hept-2-yl)-phenylamino]-methylene}-4H-isoquinoline-1,3-dione], for which the 50% inhibitory concentration (IC50) in experiment [7] (setting [14]) is more than 50000 nM; in experiment [2] (setting [9]), 3200 nM; in experiment [3] (setting [10]) it was 2600 nM; in experiment [4] (setting [11]), 320 nM; in experiment [5] (setting [12]), 3200 nM; in experiment [6] (setting [13]), 1900 nM.

Turning to `CN(C)CCNC(=O)C1CCN(c2ccc(N/C=C3\C(=O)NC(=O)c4ccc(I)cc43)cc2)CC1` [Example 433, N-[2-(Dimethylamino)ethyl]-1-(4-{[(Z)-(6-iodo-1,3-dioxo-2,3-dihydroisoquinolin-4(1H)-ylidene)methyl]amino}phenyl)piperidine-4-carboxamide], the IC50 in experiment [1] (setting [8]) is more than 50000 nM; in experiment [2] (setting [15]) it was 2800 nM; in experiment [3] (setting [16]), 3100 nM; in experiment [4] (setting [11]) it was 1200 nM; in experiment [5] (setting [17]) it was 4500 nM; in experiment [6] (setting [18]), 2000 nM.

`O=C1NC(=O)c2ccc(I)cc2/C1=C/NCc1ccc(-c2ccco2)c(O)c1` [Example 505, 4-[(4-Furan-2-yl-3-hydroxy-benzylamino)-methylene]-6-iodo-4H-isoquinoline-1,3-dione]: the concentration for half-maximal inhibition (IC50) in experiment [1] (setting [19]) is 8400 nM; in experiment [2] (setting [15]) it was 270 nM; in experiment [3] (setting [16]), 700 nM; in experiment [5] (setting [17]), 260 nM; in experiment [6] (setting [18]) it was 380 nM.

For `O=C1NC(=O)c2ccc(I)cc2/C1=C/NCc1ccc(-c2cccnc2)c(O)c1` [Example 515, 4-[(3-Hydroxy-4-pyridin-3-yl-benzylamino)-methylene]-6-iodo-4H-isoquinoline-1,3-dione], the IC50 in experiment [1] (setting [19]) was determined as 3600 nM; in experiment [2] (setting [15]), 380 nM; in experiment [3] (setting [16]) it was 1100 nM; in experiment [5] (setting [17]) it was 340 nM; in experiment [6] (setting [18]) it was 440 nM.

For the compound `O=C1NC(=O)c2ccc(I)cc2/C1=C/NCc1ccn(-c2ccccc2)c(=O)c1` [Example 518, (4Z)-6-Iodo-4-({[(2-oxo-1-phenyl-1,2-dihydropyridin-4-yl)methyl]amino}methylene)isoquinoline-1,3(2H,4H)-dione], the IC50 in experiment [7] (setting [20]) was more than 50000 nM; in experiment [2] (3 days), 150 nM; in experiment [3] (3 days), 640 nM; in experiment [4] (setting [21]), 110 nM; in experiment [5] (BT474 cells, 6 days, SRB; read-out: In Vitro Cellular Activity IC50 BT474) it was 80 nM; in experiment [6] (3 days), 230 nM.

On to `O=C1NC(=O)c2ccc(I)cc2/C1=C/NCc1cc(O)c(-c2ccoc2)cc1F` [Example 520, 4-[(2-Fluoro-4-furan-3-yl-5-hydroxy-benzylamino)-methylene]-6-iodo-4H-isoquinoline-1,3-dione], for which the IC50 in experiment [1] (setting [19]) was determined as 12100 nM; in experiment [2] (setting [15]), 900 nM; in experiment [3] (setting [16]), 2200 nM; in experiment [4] (setting [21]) it was 10 nM; in experiment [5] (setting [17]), 660 nM; in experiment [6] (setting [18]), 1200 nM.

Regarding `Cc1cccc(-c2ccc3c(c2)C(=CNCc2ccc(O)c(O)c2)C(=O)NC3=O)c1` [Example 782, 4-[(3,4-Dihydroxy-benzylamino)-methylene]-6-m-tolyl-4H-isoquinoline-1,3-dione], the concentration for half-maximal inhibition (IC50) in experiment [7] (setting [20]) was more than 50000 nM; in experiment [2] (setting [15]) it was 15800 nM; in experiment [3] (setting [16]), 14300 nM; in experiment [4] (setting [21]), 2120 nM; in experiment [5] (setting [17]), 20300 nM; in experiment [6] (setting [18]), 15800 nM.

For the compound `CN1CCN(c2ccc(NC=C3C(=O)NC(=O)c4ccc(-c5ccco5)cc43)cc2)CC1` [Example 830, 6-Furan-2-yl-4-{[4-(4-methyl-piperazin-1-yl)-phenylamino]-methylene}-4H-isoquinoline-1,3-dione], the IC50 in experiment [7] (setting [20]) was more than 50000 nM; in experiment [2] (setting [15]), 3600 nM; in experiment [3] (setting [16]) it was 3300 nM; in experiment [4] (setting [21]), 170 nM; in experiment [5] (setting [17]) it was 1200 nM; in experiment [6] (setting [18]), 2700 nM.

Take `COc1ccc(CNC=C2C(=O)NC(=O)c3ccc(-c4ccc5ccccc5c4)cc32)cc1O` [Example 834, 4-[(3-Hydroxy-4-methoxy-benzylamino)-methylene]-6-naphthalen-2-yl-4H-isoquinoline-1,3-dione]: the half-inhibitory concentration (IC50) in experiment [7] (setting [20]) was more than 50000 nM; in experiment [2] (setting [15]), 23100 nM; in experiment [3] (setting [16]) it was 18600 nM; in experiment [4] (setting [21]) it was 290 nM; in experiment [5] (setting [17]), 13200 nM; in experiment [6] (setting [18]), 29600 nM.
